Entries after “also recorded” stand apart in the source; their conditions may differ. Like-named read-outs stand apart in the source and are kept apart here. A value given as a limit tells only on which side of the number the result lay.

The subject of series [1] is NO production in LPS-induced BV-2 cells. Description: Inhibition of NO production in LPS-induced BV-2 cells (Griess method). In kind it is cell-based, murine. Conditions: for IC50: LPS (1 μg/ml)-induced BV-2 cells, 24 h, read-out: IC50, inhibitory effect against NO production. On the procedure:
In the presence or absence of LPS (1 μg/ml), murine BV-2 microglial cells were treated with compounds with different concentrations for 24 h. The same volume of Griess reagent was added to the supernatant of culture media. The Griess method was used to determine the NO levels under the absorbance at 540 nm measured using a microplate spectrophotometer (Thermo Scientifics, United States). Based on the established calibration curve of standard sodium nitrite solutions, the content of nitrite was calculated.
Background: Griess reagent forms a coloured azo dye with nitrite.

Series [2] in a line: Cell viability / cytotoxicity, MTT method. Type of series: cell-based, murine. The note with it: mouse, BV-2 microglial cells, BV-2 cells. On the procedure:
(§1) Murine BV-2 microglial cells were obtained from the Cell Culture Center of Institute of Basic Medical Sciences, Chinese Academy of Medical Sciences, and the cells were cultured in Dulbecco’s modified Eagle’s medium (Gibco) together with 10% (v/v) fetal bovine serum (HyClone) within a 5% CO2 incubator at 37°C. The MTT method was utilized to detect the cytotoxicity of the compound to read the absorbance at 570 nm using a microplate spectrophotometer (Thermo Scientifics, United States).

Series [3] deals with BV-2 microglial cells. Description: Cell viability / cytotoxicity, MTT method. Type of series: cell-based, murine. Conditions: BV-2 cells. The procedure:
as §1
(Formazan colour is commonly taken as a measure of viable cells.)

Series [4] deals with iNOS. Briefly: Western blot of iNOS protein expression in LPS-induced BV-2 cells. In kind it is cell-based, murine. Conditions: LPS (1 μg/mL)-induced BV-2 cells, different concentrations, 24 h. On the procedure: (§2) In 12-well plates, BV-2 cells were seeded to incubate with LPS (1 μg/ml) for 1 h. Each compound was incubated with BV-2 cells for 16 h. Phenylmethylsulfonyl fluoride-protease inhibitor cocktail as the cell extraction buffer was used to lyse cells. Nuclear and cytosolic extraction kits were applied for the collection of the cytosolic and nuclear extracts. Upon SDS-PAGE, proteins were purified and transferred to PVDF membranes (Millipore). After treatment with 5% (W/V) skim milk in TBST (Tris-buffered saline with 0.1% Tween 20) for 1 h, the membranes were maintained at 4°C overnight. The membrane was washed and then incubated with a secondary antibody at 20°C for 1 h. The target proteins were visualized under a chemiluminescence (ECL) detection system, and the relative optical densities were analyzed by Image Master™ 2D Elite software.
(§3) FIGURE 6 Analog 18 inhibited the expression of iNOS and COX-2 in LPS-induced BV-2 cells. Cells were stimulated by 1 μg/mL LPS with or without 18 for 24 h. (A) The protein expressions o f iNOS treated by different concentrations of 18 were determined by Western blot assay, (B) the expressions of COX-2 t reated by different concentrations of 18 were determined by Western blot assay. […]

Series [5] has as its system COX-2. Briefly: Western blot of COX-2 protein expression in LPS-induced BV-2 cells. Type of series: cell-based, murine. The note with it: LPS (1 μg/mL)-induced BV-2 cells, different concentrations, 24 h. The procedure:
as §2, §3
For orientation: A western blot detects proteins with antibodies after separation by electrophoresis.

The subject of series [6] is phosphorylation of JNK, ERK and p38 (MAPK signaling pathway). Description: MAPK phosphorylation in LPS-stimulated BV-2 cells. In kind it is cell-based, murine. Conditions: LPS-stimulated BV-2 microglial cells. On the procedure: as §2
Series [7] concerns NF-κB p65. Description: Nuclear translocation of NF-κB p65 in LPS-stimulated BV-2 cells (immunofluorescence and Western blot). Conditions: LPS (1 μg/ml)-stimulated BV-2 cells, 2 μM, 3 h, immunofluorescence and WB. Type of series: cell-based, murine. On the procedure:
as §2
Prior to LPS induction, BV-2 cells were pretreated by the compound (2 μM) in DMSO. Cells were seeded in glass coverslips, which were then treated with cold 4% paraformaldehyde and 0.2% Triton X-100 (in PBS). […] Images were detected using a fluorescence microscope (OLYMPUS IX83).
FIGURE 8 Effect of analog 18 on the nuclear translocation of NF-κB p65 in LPS-stimulated BV-2 cells. […] (B) BV-2 cells were stimulated with LPS (1 μg/ml) in the absence or presence of 18 (2 μM) for 3 h, and NF-kB p65 levels in the nucleus and cytoplasm were determined by Western blot. […]

Series [8] deals with iNOS. Briefly: iNOS mRNA level. In kind it is cell-based.
The subject of series [9] is COX-2. Briefly: COX-2 mRNA level. In kind it is cell-based.

Regarding `CC1=CCC23CC1OC(C)(CO)C2C(O)CC3C` (centres unmarked) [Compound 1, Bilaiaeacorenol A], the IC50 (as a rule, the concentration that inhibits the measured activity by half) in series [1] (Mus musculus, BV-2, 24 h) was over 10 µM. The CC50 (usually the concentration giving 50% cytotoxicity) in [2] is over 100 µM.
With `CC1CC(O)C2C(C)(O)CC3CC12CC=C3CO` (centres unmarked) [Compound 2, Bilaiaeacorenol B], the melting point (usually the temperature, or range, at which the solid turns liquid) was in the range of 108 to 110 °C. The IC50 in [1] (Mus musculus, BV-2, 24 h) came out at 6.1 ± 2.3 µM. In series [2], this molecule yielded a 50% cytotoxic concentration (CC50) of over 100 µM.
Turning to `CC1=CCC2(CC1O)C(C)CC(O)C2C(C)(O)CO` (centres unmarked) [Compound 3, Bilaiaeacorenol C], in [1] (Mus musculus, BV-2, 24 h), the IC50 amounted to 5.3 ± 1.1 µM. Further, in [2], the CC50 was over 100 µM.
`CC1=CCC2(CC1O)C(C)CC(O)C2C(C)CO` (centres unmarked) [Compound 4, Bilaiaeacorenol D]: the concentration for half-maximal inhibition (IC50) in series [1] (Mus musculus, BV-2, 24 h) was determined as 7.6 ± 1.2 µM. In series [2], this molecule had a CC50 of over 100 µM.
For `C=C(C)C1C(O)CC(C)C12CC=C(C)C(O)C2` (centres unmarked) [Compound 5, Bilaiaeacorenol E], the concentration for half-maximal inhibition (IC50) in [1] (Mus musculus, BV-2, 24 h) is over 10 µM. Further, in series [2], the CC50 is over 100 µM.
Turning to `C=C(C)C1C(O)CC(C)C12CC=C(C)C(O)C2` (centres unmarked) [Compound 6, Bilaiaeacorenol F], the IC50 in [1] is over 10 µM. The molecule also gave a CC50 in series [3] of over 100 µM.
As for `C=C(C)C1C(O)CC(C)C12CC=C(CO)C(O)C2` (centres unmarked) [Compound 7, Bilaiaeacorenol G], the IC50 in [1] (Mus musculus, BV-2, 24 h) is over 10 µM. The molecule further showed a CC50 in [2] of over 100 µM.
For `C=C(C)C1C(O)CC(C)C12CC(O)C(C)=CC2O` (centres unmarked) [Compound 8, Bilaiaeacorenol H], in series [1] (Mus musculus, BV-2, 24 h), the IC50 is over 10 µM. The CC50 in [2] was over 100 µM.
On to `C=C(C)C1C(OC(C)=O)CC(C)C12CC(O)C(C)=CC2O` (centres unmarked) [Compound 9, Bilaiaeacorenol I], for which the IC50 in series [1] (Mus musculus) is 3.5 ± 0.1 µM. Besides, the CC50 in [2] was over 100 µM.
Take `C=C(CO)C1C(OC(C)=O)CC(C)C12CC=C(C)C(O)C2` (centres unmarked) [Compound 10, Bilaiaeacorenol J]: the IC50 in [1] (Mus musculus, BV-2, 24 h) is over 10 µM. This molecule returned a CC50 in series [2] of over 100 µM.
For `C=C(C)C1C(O)CC(C)C12C=CC(C)(O)C(O)C2` (centres unmarked) [Compound 11, Bilaiaeacorenol K] the same measures were 8.7 ± 2.1 µM and over 100 µM.
For `C=C(C)C1C(O)CC(C)C12CCC(CO)C(O)C2` (centres unmarked) [Compound 12, Bilaiaeacorenol L] the same measures were over 10 µM and over 100 µM.
The corresponding values for `C=C(C)C1C(OC(C)=O)CC(C)C12CCC(CO)C(O)C2` (centres unmarked) [Compound 13, Bilaiaeacorenol M] are 0.53 ± 0.47 µM and over 100 µM.
With `C=C(C)C1C(O)CC(C)C12CCC(CO)C(O)C2` (centres unmarked) [Compound 14, Bilaiaeacorenol N], the 50% inhibitory concentration (IC50) in series [1] (Mus musculus) was over 10 µM. Besides, in [3], the CC50 was over 100 µM.
For `C=C(C)C1C(OC(C)=O)CC(C)C12CC(O)C(C)(O)C(O)C2` (centres unmarked) [Compound 15, Bilaiaeacorenol O], the IC50 in series [1] (Mus musculus) turned out to be 3.7 ± 0.1 µM. In [2], this molecule displayed a CC50 of over 100 µM.
Turning to `C=C(C)C1C(O)CC(C)C12CCC(CO)C(O)C2` (centres unmarked) [Compound 16, Bilaiaeacorenol P], the IC50 in series [1] is 7.5 ± 0.2 µM. The CC50 in series [3] was over 100 µM.
With `C=C(C)C1C(O)CC(C)C12CC(=O)C(C)C(O)C2` (centres unmarked) [Compound 17, Bilaiaeacorenol Q], the 50% inhibitory concentration (IC50) in [1] (Mus musculus, BV-2, 24 h) was over 10 µM. Further, in series [2], the CC50 is over 100 µM.
Take `C=C(C)C1C(O)CC(C)C12CCC(C(=O)O)C(O)C2` (centres unmarked) [Compound 18, Bilaiaeacorenol R]: the “reduction against NO production” value in [1] (LPS-induced BV-2 cells, dose-dependent manner) is on record as “efficient reduction”. The IC50 in series [1] (Mus musculus, BV-2, 24 h) is 0.5 ± 1.2 µM. The molecule also registered a cytotoxic concentration (CC50) in series [2] of over 100 µM. The “iNOS level (protein)” value in series [4] is “decreased”. Moreover, in [5], the “COX-2 level (protein)” value is listed as “decreased”. For the same molecule, the “phosphorylation of JNK, ERK and p38” value in series [6] is recorded as “slightly affected; also recorded: Ineffective”. Also, the “p65 level in the nucleus” value in series [7] is “significantly downregulated”. Moreover, in series [8], the “iNOS mRNA level” value was “marked reductions”. The “COX-2 mRNA level” value in [9] is recorded as “marked reductions”.
With `[H]/N=C(/NC)NCCC[C@H](N)C(=O)O` [L-NMMA, NG-monomethyl-L-arginine, reference compound], the IC50 in [1] (Mus musculus, BV-2, 24 h) was 6.8 ± 4.2 µM. This molecule also yielded a CC50 in series [2] of over 100 µM.
In the case of adametacorenol A [Compound 19], in [1], the IC50 is over 10 µM. The same molecule returned a CC50 in [3] of over 100 µM.
For adametacorenol B [Compound 20] the same measures were over 10 µM and over 100 µM.
